We go through one molecule from ChEMBL document CHEMBL4814079, “Structure-Activity Relationship for the Picolinamide Antibacterials that Selectively Target Clostridioides difficile” (ACS Med Chem Lett, 2021).

Values after ≈ are worked out from the molar mass of the structure shown.

The subject of one data set is HeLa. In words: Cytotoxicity against human HeLa cells assessed as reduction in cell viability incubated for 16 hrs by XTT assay. The class given is cell-based.
A further data set has as its system Clostridioides difficile. The experiment in a line: Antibacterial activity against Clostridium difficile ATCC 43255 assessed as reduction in bacterial growth measured after 48 hrs by CLSI based broth microdilution method. The class given is functional. Background: Broth dilution looks for growth in wells or tubes with falling amounts of substance.
The test system of a further data set is Staphylococcus aureus. In words: Antibacterial activity against […] Staphylococcus aureus ATCC 29213 assessed as reduction in bacterial growth measured after 48 hrs by CLSI based broth microdilution method. The class given is functional.
A further data set relates to Enterococcus faecium. In words: Antibacterial activity against Enterococcus faecium ATCC 19434 assessed as reduction in bacterial growth measured after 48 hrs by CLSI based broth microdilution method. The data set is classed as functional.
For the next data set, the system named is Bacteroides fragilis. In words: Antibacterial activity against gut Bacteroides fragilis HM-709 assessed as reduction in bacterial growth measured after 48 hrs by CLSI based broth microdilution method. The data set is classed as organism-based. Particulars: in vitro.
The test system of another data set is Bifidobacterium longum. The experiment in a line: Antibacterial activity against gut Bifidobacterium longum HM-846 assessed as reduction in bacterial growth measured after 48 hrs by CLSI based broth microdilution method. The data set is classed as organism-based.
The test system of another data set is Corynebacterium. In words: Antibacterial activity against gut Corynebacterium HM-784 assessed as reduction in bacterial growth measured after 48 hrs by CLSI based broth microdilution method. The class given is organism-based.
The subject of another data set is Fusobacterium nucleatum. In words: Antibacterial activity against gut Fusobacterium nucleatum HM-992 assessed as reduction in bacterial growth measured after 48 hrs by CLSI based broth microdilution method. The data set is classed as organism-based. Particulars: in vitro.
Data set [1] can be described thus: Antibacterial activity against gut Limosilactobacillus-reuteri HM-102 assessed as reduction in bacterial growth measured after 48 hrs by CLSI based broth microdilution method.
In the next data set the test system is Lactobacillus gasseri. The experiment in a line: Antibacterial activity against gut Lactobacillus gasseri HM-664 assessed as reduction in bacterial growth measured after 48 hrs by CLSI based broth microdilution method. Particulars: in vitro. The class given is organism-based.
The next data set concerns Veillonella. The experiment in a line: Antibacterial activity against gut Veillonella sp HM-49 assessed as reduction in bacterial growth measured after 48 hrs by CLSI based broth microdilution method. Particulars: in vitro. The data set is classed as organism-based.
A further data set has as its system Eubacterium sp. The experiment in a line: Antibacterial activity against gut Eubacterium sp. HM-178 assessed as reduction in bacterial growth measured after 48 hrs by CLSI based broth microdilution method. The class given is organism-based.
Data set [2] in a line: Selectivity index, ratio of MIC of […] Staphylococcus aureus ATCC 29213 to MIC of Clostridium difficile ATCC 43255. The data set is classed as functional.
The nature of data set [3]: Drug excretion in CD1 mouse feces at 10 mg/kg, po measured upto 8 hrs by LC-MS/MS analysis. The class given is ADME, organism-based. Particulars: in vivo.
A short description of data set [4]: Plasma concentration in CD1 mouse at 10 mg/kg, po measured upto 8 hrs by LC-MS/MS analysis. The class given is ADME, organism-based. Particulars: in vivo, BLD = below limit of detection.
Data set [5] in a line: Ratio of drug excretion in CD-1 mouse feces to MIC for antibacterial activity against Clostridium difficile ATCC 43255. The class given is toxicity. Particulars: in vivo.

As for `O=C(Nc1ncco1)c1cc(-c2ccc(Cl)c(Cl)c2)ccn1`, the IC50 in the data set on HeLa worked out at 95.2 mg/L (≈ 285 µM). Moreover, the MIC was 0.125 mg/L (≈ 0.374 µM) with Clostridioides difficile; 128 mg/L (≈ 383 µM) in the data set with Staphylococcus aureus; at least 128 mg/L in the data set with Enterococcus faecium; 4 mg/L (≈ 12 µM) in the data set with Bacteroides fragilis; over 16 mg/L with Bifidobacterium longum; 16 mg/L (≈ 47.9 µM) with Corynebacterium. The MIC with Fusobacterium nucleatum was 8 mg/L (≈ 23.9 µM); in [1], 4 mg/L (≈ 12 µM); in the data set with Lactobacillus gasseri, over 16 mg/L; in the data set with Veillonella it was 16 mg/L (≈ 47.9 µM); in the data set with Eubacterium sp. it was 8 mg/L (≈ 23.9 µM). Besides, the figures for the Ratio in data set [2] and in data set [5] were 1024 and 6.6, respectively. Besides, the Drug excretion in [3] stood at 0.79 µg/g. The Cp result in data set [4] is listed as “Bld”.

What is called IC50 is the concentration needed to halve the response being measured.
